Test results reported in patent publication US6143763A, “Carbostyril derivatives” (D. Western Therapeutics Institiute, priority 1995, dated 2000).

How the values were obtained:
[1] = test system: death induced by pulmonary infarction in mice; experiment: Antithrombotic activity: inhibition of death by collagen-induced pulmonary infarction in mice; type: in vivo, male ICR mice; conditions: Mus musculus, 1 h; 30 mg/kg oral, 10 minutes before i.v. collagen; lethality in an hour; read-out: Pulmonary infarction inhibitory activity
Text: Pharmacological Experiment 2 Antithrombotic activity
Antithrombotic activity of the test compounds was estimated by an inhibitory activity of the test compound by oral administration against death induced by pulmonary infarction in mice which was introduced by intravenous administration of collagen (pulmonary infarction inhibitory activity).
Male ICR mice (5-week old, body weight; about 25 g) was fasted overnight, and separated into groups (15 mice per each group) and numbered. A test compound solution, which was prepared by suspending a test compound in 1% hydroxypropylmethyl cellulose 2910 TC-5 (HPMC, manufactured by Shin-etsu Chemical Co., Ltd.), was orally administered to the mice, and 10 minutes thereafter, a collagen solution (the method for preparation thereof and a dose thereof are explained hereafter) was injected to the mice at the tail vein at the constant rate. The lethality of the mice was determined by the number of mice which were died in an hour after the administration of collagen solution. The antithrombotic activity of the test compound was estimated by the inhibitory rate (%) of the lethality of the mice. The collagen solution was prepared by dissolving collagen (Type III, manufactured by Sigma Chemical Ltd.) in 0.05 M acetic acid solution containing 2 mM calcium chloride and 5% glucose at 4° C. so that the final concentration of collagen was adjusted to 2.5 mg/ml, and then the pH value thereof was adjusted to pH 7.4 with sodium hydroxide the day before the experiment. The collagen solution was incubated with stirring at 37° C. for two hours, and then further stirred at room temperature overnight. Just before the experiment, the pH value of the collagen solution was adjusted again to pH 7.4. The amount of the collagen solution which was injected at the tail vein was previously determined so that the lethality by pulmonary infarction induced thereby became about 75%.

[2] = test system: platelet aggregation (collagen); experiment: Platelet aggregation inhibitory activity, collagen-induced (Born's turbidimetry, rabbit PRP); type: cell-based, male rabbit (NZW); conditions: Oryctolagus cuniculus, collagen 20 μg/ml final, 37° C.
Experimental: (§1) Pharmacological Experiment 1 Platelet aggregation inhibitory activity
(§2) (1) Preparation of platelet rich plasma (PRP):
(§3) The blood was collected from the carotid of a male rabbit without anesthesia (NZW species, body weight; 2-3 kg) with mixing thereof with 1/10 volume of citric acid. The blood thus obtained was separated and put into plastic test tubes (each about 7 ml), and centrifuged at 900 rpm for 15 minutes at room temperature to give a turbid supernatant as a platelet rich plasma (PRP). The residue from which PRP is separated was centrifuged at 3000 rpm for 10 minutes, and the supernatant was collected as a platelet poor plasma (PPP). The PRP was diluted with PPP so that the concentration thereof was adjusted to […], and used in the platelet aggregation inhibitory activity test.
(§4) (2) Method for platelet aggregation inhibitory activity test:
(§5) The platelet aggregation was tested according to Born's turbidimetry. That is, a test compound was dissolved in dimethylformamide, and the test compound solution (1 μl) thus obtained was put into a cuvette, and thereto was further added PRP (200 μl). Immediately thereafter, the cuvette was set into an apparatus for determining platelet aggregation activity, PAM-8T (manufactured by Mevanix Inc.), and the mixture was incubated at 37° C. Precisely three minutes thereafter, a solution of adenosine diphosphate (ADP, PA test ADP [MCM], purchased by MC Medical Ltd.) in physiological saline solution or a collagen solution (Collagenreagent Horm, purchased by MC Medical Ltd.) (20 μl) was added thereto. The final concentration of the ADP solution or the collagen solution was 7.5 μM or 20 μg/ml, respectively.
(§6) The maximum aggregation rate and the aggregation inhibitory rate were calculated by the following equations. [formula]
(§7) IC50, which is a concentration of the test compound being required to inhibit the platelet aggregation reaction by 50%, was determined from the aggregation inhibitory rates at two different concentrations of a test compound.

[3] = test system: left common carotid artery injured by balloon; experiment: Intima thickening inhibitory activity after balloon injury (3H-thymidine in carotid artery); type: in vivo, male SD rats; conditions: Rattus norvegicus, oral
Experimental: Pharmacological Experiment 3 Intima thickening inhibitory activity
Male SD rats (6-week old) were separated into groups (8 rats per each group) and numbered. A test compound solution, which was prepared by suspending a test compound in 1% hydroxypropylmethyl cellulose 2910 TC-5 (HPMC, manufactured by Shin-etsu Chemical Co., Ltd.) was orally administered to the rats. In the control group, 1% HPMC solution was orally administered instead of the test compound solution. One or two hours thereafter, two french balloon catheters (manufactured by Baxter Travenol Inc.) were inserted into the left common carotid artery of the rats, and the artery was injured by abrading five times with a balloon. The day of balloon abrasion was considered as Day 0. On the following day (Day 1), a test compound was orally administered to the rats two times a day (in the morning and in the evening). On Day 2, 1.48 MBq/ml of ^3 H-thymidine (dose: 5 ml/kg, manufactured by NEN Research Products, Ltd.) was injected at the tail vein of the rats about one hour after the administration of the test compound so that the time after the balloon injury was fixed to the same in each rat. Precisely 45 minutes after the injection of ^3 H-thymidine at the tail veil, the common carotid artery of the rats was taken out.
In the test compound-treated group, only the left common carotid artery which was injured by balloon was taken out, and in the control group, both the left and right common carotid arteries were taken out. The common carotid artery thus obtained was cut to pieces of exact 1 cm long, and the unnecessary portions such as the outer membrane or the nerves were completely removed. The common carotid artery was put into a glass vial, and thereto was added a 0.5 N sodium hydroxide (0.5 ml), and the mixture was incubated at 37° C. overnight to be solubilized. The mixture was neutralized with a 5 N hydrochloric acid (0.05 ml), and thereto was further added an aqueous hydrogen peroxide solution (0.1 ml). Aquasol II (10 ml, manufactured by Du Pont Co.) was added thereto, and the mixture was well stirred and then allowed to stand for 30 minutes. The radioactivity of tritium in the mixture was counted by liquid scintillation counter. The intima thickening inhibitory activity of the test compound was calculated by the following equation. [formula] L (c): The amount of tritium in the left common carotid artery in the control group (dpm)
R (c): The amount of tritium in the right common carotid artery in the control group (dpm)
L: The amount of tritium in the left common carotid artery in the test compound-treated group (dpm)

[4] = test system: platelet aggregation (ADP); experiment: Platelet aggregation inhibitory activity, ADP-induced (Born's turbidimetry, rabbit PRP); type: cell-based, male rabbit (NZW); conditions: Oryctolagus cuniculus, ADP 7.5 μM final, 37° C.
Experimental: as §1, §2, §3, §4, §5, §6, §7

[5] = biological target: T1, cGMP-inhibited cAMP phosphodiesterase (PDE3) (Homo sapiens, UniProt Q14432); experiment: cGMP-inhibited cAMP phosphodiesterase (PDE3) inhibitory activity; type: biochemical; conditions: 0.4 μM [8-3H]cAMP, pH 8.0, 30° C., 15 minutes; recombinant enzyme from Sf9; read-out: PDE inhibitory activity IC50
T1 construct: made in house; host or cells: insect cell Sf9, baculovirus expression system
T1 sequence (Q14432 whole entry): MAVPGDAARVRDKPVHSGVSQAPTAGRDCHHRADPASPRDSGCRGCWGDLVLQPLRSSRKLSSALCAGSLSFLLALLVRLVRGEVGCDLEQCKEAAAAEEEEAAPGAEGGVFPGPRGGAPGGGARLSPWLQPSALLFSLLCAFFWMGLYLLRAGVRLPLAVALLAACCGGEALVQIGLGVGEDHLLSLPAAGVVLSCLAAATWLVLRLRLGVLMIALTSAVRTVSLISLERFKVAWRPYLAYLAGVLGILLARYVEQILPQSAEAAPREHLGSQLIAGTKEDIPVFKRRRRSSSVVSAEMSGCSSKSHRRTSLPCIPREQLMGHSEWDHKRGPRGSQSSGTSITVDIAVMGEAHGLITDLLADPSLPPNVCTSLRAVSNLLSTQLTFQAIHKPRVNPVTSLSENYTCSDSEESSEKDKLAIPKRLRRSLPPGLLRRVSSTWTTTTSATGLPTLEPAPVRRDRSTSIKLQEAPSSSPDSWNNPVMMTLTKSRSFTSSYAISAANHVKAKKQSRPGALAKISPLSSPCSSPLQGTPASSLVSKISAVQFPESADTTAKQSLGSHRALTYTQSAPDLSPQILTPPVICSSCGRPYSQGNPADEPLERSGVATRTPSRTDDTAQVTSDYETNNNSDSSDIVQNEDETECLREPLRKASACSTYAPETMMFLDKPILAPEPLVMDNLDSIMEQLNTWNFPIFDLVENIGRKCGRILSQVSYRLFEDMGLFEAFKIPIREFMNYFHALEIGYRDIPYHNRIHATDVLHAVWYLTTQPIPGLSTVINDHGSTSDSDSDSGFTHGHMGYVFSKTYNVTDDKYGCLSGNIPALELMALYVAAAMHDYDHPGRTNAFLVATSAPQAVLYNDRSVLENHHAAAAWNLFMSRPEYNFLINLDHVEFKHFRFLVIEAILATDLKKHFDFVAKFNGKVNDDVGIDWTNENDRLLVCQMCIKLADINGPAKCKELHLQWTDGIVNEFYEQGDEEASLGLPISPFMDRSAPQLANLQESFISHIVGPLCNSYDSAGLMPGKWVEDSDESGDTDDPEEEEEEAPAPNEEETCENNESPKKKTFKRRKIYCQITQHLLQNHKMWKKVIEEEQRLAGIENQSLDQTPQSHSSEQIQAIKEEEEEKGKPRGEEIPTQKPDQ

Structure (SMILES)	inhibition in vivo at 30 mg/kg [1]	IC50 [2]	inhibition in vivo at 10 mg/kg [3]	IC50 [4]	inhibition in vivo at 30 mg/kg [3]	IC50 [5]
O=C(NCCCOc1ccc2[nH]c(=O)ccc2c1)N(C1CC1)[C@@H]1CCCC[C@H]1O (relative stereo) [Ex. 6, 6-{3-[3-(trans-2-hydroxycyclohexyl)-3-cyclopropylureido]propoxy}carbostyril]	100%	1900 nM	31.4%	1800 nM	–	–
CC(=O)O[C@@H]1CCCC[C@H]1N(C(=O)NCCCOc1ccc2[nH]c(=O)ccc2c1)C1CC1 (relative stereo) [Ex. 7, 6-{3-[3-(trans-2-acetyloxycyclohexyl)-3-cyclopropylureide]propoxy}carbostyril]	67%	2100 nM	–	18200 nM	15.2%	–
O=C(NCCCOc1ccc2[nH]c(=O)ccc2c1)N(C1CCCCCC1)[C@@H]1CCCC[C@H]1O (relative stereo) [Ex. 18]	69%	30 nM	–	120 nM	19%	–
O=C(NCCCOc1ccc2[nH]c(=O)ccc2c1)N(C1CCCCCCC1)[C@@H]1CCCC[C@H]1O (relative stereo) [Ex. 24]	100%	30 nM	–	80 nM	–	0.647 nM
O=C1CCc2cc(OCCCNC(=O)N(C3CC3)[C@@H]3CCCC[C@H]3O)cc(F)c2N1 (relative stereo) [Ex. 25]	100%	3900 nM	–	4650 nM	–	–
O=C(NCCCOc1cc(F)c2[nH]c(=O)ccc2c1)N(C1CC1)[C@@H]1CCCC[C@H]1O (relative stereo) [Ex. 26]	85%	3030 nM	–	450 nM	16%	74.6 nM
COc1cc(OCCCNC(=O)N(C2CC2)[C@@H]2CCCC[C@H]2O)cc2ccc(=O)[nH]c12 (relative stereo) [Ex. 27]	80%	31600 nM	–	31600 nM	–	2180 nM
O=C(NCCOc1ccc2[nH]c(=O)ccc2c1)N(C1CC1)[C@@H]1CCCC[C@H]1O (relative stereo) [Ex. 30]	100%	2940 nM	–	3670 nM	–	–
O=C(NCCCOc1ccc2nc(O)ccc2c1)N(C1CC1)[C@H]1CCCC[C@@H]1O [Ex. 8, (S,S)-(+)-6-{3-[3-(2-Hydroxycyclohexyl)-3-cyclopropylureido]propoxy}-carbostyril]	100%	2000 nM	–	2100 nM	13.3%	113 nM
O=C(NCCCOc1ccc2[nH]c(=O)ccc2c1)N(C1CC1)[C@@H]1CCCC[C@H]1O [Ex. 9, (R,R)-(-)-6-{3-[3-(trans-2-hydroxycyclohexyl)-3-cyclopropylureido]propoxy}carbostyril]	100%	2000 nM	26.8%	1900 nM	–	93 nM
CCC(CN(C(=O)NCCCOc1ccc2[nH]c(=O)ccc2c1)C1CCCCC1)OC(C)=O (stereo not drawn) [Ex. 11]	80%	2100 nM	–	600 nM	33%	–
CCC(O)CN(C(=O)N(C)CCCOc1ccc2[nH]c(=O)ccc2c1)C1CCCCC1 (stereo not drawn) [Ex. 13, 6-{3-[1-methyl-3-cyclohexyl-3-(2-hydroxybutyl)ureido]propoxy}carbostyril]	58%	2000 nM	–	2100 nM	16.6%	–
CCC(CN(C(=O)N(C)CCCOc1ccc2[nH]c(=O)ccc2c1)C1CCCCC1)OC(C)=O (stereo not drawn) [Ex. 14, 6-{3-[1-methyl-3-cyclohexyl-3-(2-acetyloxybutyl)ureido]propoxy}carbostyril]	66%	2200 nM	–	1500 nM	15.7%	–
CCN(CCCOc1ccc2[nH]c(=O)ccc2c1)C(=O)N(C)C1CCCCC1 [Ex. 15]	86%	16100 nM	–	15200 nM	11.9%	–
C=CCN(CCCOc1ccc2[nH]c(=O)ccc2c1)C(=O)N(C)C1CCCCC1 [Ex. 16, 6-[3-(3-Cyclohexyl-3-methyl-1-allylureido)propoxy]carbostyril]	77%	20000 nM	–	4600 nM	33.3%	–
CCOC(CC)CN(C(=O)NCCCOc1ccc2[nH]c(=O)ccc2c1)C1CCCCC1 (stereo not drawn) [Ex. 19]	84%	590 nM	–	180 nM	23.4%	–
CCC(CN(C(=O)NCCCOc1ccc2[nH]c(=O)ccc2c1)C1CCCCC1)OCc1ccccc1 (stereo not drawn) [Ex. 20]	66%	290 nM	–	220 nM	–	–
CC(O)CN(CCCOc1ccc2[nH]c(=O)ccc2c1)C(=O)N(C)C1CCCCC1 (stereo not drawn) [Ex. 21]	59%	3250 nM	–	2080 nM	–	–
CN(C(=O)N(CCCO)CCCOc1ccc2[nH]c(=O)ccc2c1)C1CCCCC1 [Ex. 22]	69%	2800 nM	–	1310 nM	–	–
CCCN(CCCOc1ccc2[nH]c(=O)ccc2c1)C(=O)N(C)C1CCCCC1 [Ex. 23, 6-[3-(3-cyclohexyl-3-methyl-1-propylureido)propoxy]carbostyril]	90%	2510 nM	–	13400 nM	–	–
O=C(NCCCOc1ccc2[nH]c(=O)ccc2c1)NN(C1CCCCC1)C1CC1 [Ex. 29]	91%	30 nM	–	10 nM	29.3%	–
O=C(NCCCCOc1ccc2[nH]c(=O)ccc2c1)N(C1CC1)[C@@H]1CCCC[C@H]1O [Ex. 31]	48%	2570 nM	–	15700 nM	–	–
